The values that follow come from PMC3731320, “Identification of Benzimidazole Diamides as Selective Inhibitors of the Nucleotide-Binding Oligomerization Domain 2 (NOD2) Signaling Pathway” (PLoS ONE, 2013).

“Also recorded” adds a separate entry of the source.

The subject of test [1] is NOD2. Briefly: MDP-stimulated IL-8 release in 293/hNOD2 cells (HTRF). The class given is cell-based, human. Particulars: Homo sapiens. The method, then: (§1) After 24 hours the amount of IL-8 secreted into the medium was determined by homogeneous time resolved fluorescence (HTRF) assay by the direct addition of a 1:1 mix of europium cryptate and XL665-conjugated anti-IL-8 antibodies according to the manufacturer's instructions (Cisbio).
A general note: TR-FRET usually uses a lanthanide donor and a delayed reading to cut background.

The subject of test [2] is NOD1. Nature of the test: iE-DAP-stimulated IL-8 release in 293/hNOD1 cells (HTRF). Particulars: Homo sapiens; IL-8 end-point; 60 ng/mL iE-DAP; read-out: IC50 293/hNOD1 iE-DAP. The test is classed as cell-based, human. As to the method: as §1
Test [3] relates to NOD1. Briefly: Tri-DAP-stimulated IL-8 release in HCT116 cells (endogenous NOD1). The class given is cell-based, human. As to the method: (§2) Compound activity on endogenous NOD1 and NOD2 receptors was determined by inhibition of either Tri-DAP or MDP-stimulated IL-8 release, respectively, using HCT116 human colon carcinoma cells. […] The cells were maintained in DMEM high glucose medium supplemented with 25 mM HEPES and 10% FBS. For assay, cells were seeded into 96 well plates (90,000 cells/well) in DMEM containing 1% FBS and pre-incubated with compounds for 1 hour before addition of either 1 μg/mL MDP or 25 μg/mL Tri-DAP. The level of IL-8 released into medium after 24-hour incubation was determined by HTRF assay as described above and fluorescence measured on an Envision model 2102 multilabel plate reader (Perkin Elmer).

The subject of test [4] is NOD2. Briefly: MDP-stimulated IL-8 release in HCT116 cells (endogenous NOD2). The test is classed as cell-based, human. The method, then:
as §2

The test system of the next test is TNFR1. Nature of the test: TNFα-stimulated (TNFR1-induced) IL-8 release in 293/hNOD2 cells. The test is classed as cell-based, human. Particulars: Homo sapiens; IL-8 end-point; 20 ng/mL rhTNFα; read-out: IC50 293/hNOD2 TNFα. As to the method:
as §1

Test [5] has as its system TLR2. Briefly: Pam2CSK4-stimulated IL-8 release in 293/hTLR2 cells. The test is classed as cell-based, human. The settings on record: Homo sapiens; IL-8 end-point; 3–10 ng/mL Pam2CSK4; read-out: IC50 293/hTLR2 Pam2CSK4. As to the method:
as §1

Test [6] addresses T1, full length human FLAG-6His tagged RIP2 (Homo sapiens, UniProt O43353).
T1 construct: autophosphorylation of full length human FLAG-6His tagged RIP2; FLAG; 6His; made in house
Nature of the test: RIP2 kinase autophosphorylation assay (ADP-Glo). The test is classed as biochemical. The settings on record: autophosphorylation of RIPK2; 10 μM ATP. As to the method: Direct effects of compounds on RIP2 kinase activity was determined by autophosphorylation of full length human FLAG-6His tagged RIP2 expressed and purified from baculovirus. Enzyme was pre-incubated with compounds in assay buffer (50 mM HEPES pH 7.5, 25 mM MgCl2, 0.05%[w/v] CHAPS, 1 mM DTT and 0.05 mg/mL BSA) in 384-well plates, and then incubated with 10μM ATP for 2 hours at room temperature. The amount of ADP generated was measured using the ADP-Glo universal ADP detection assay for kinases (Promega) and luminescence quantified on a ViewLux imager.

Test [7] concerns NOD2. Nature of the test: Western blot of MAPK phosphorylation and IκBα in MDP-stimulated 293/hNOD2 cells. The class given is cell-based, human. The settings on record: GSK669 at 1 and 10 μM. As to the method: Confluent cultures of 293/-hNOD1 and -hNOD2 cells in 24-well plates were serum-starved over-night. The next day, cells were pre-incubated for 1 hour with compound and then stimulated for 1 hour with either 50 μg/mL Tri-DAP or 25 μg/mL MDP, respectively. Whole cell lysates were prepared in 1X cell lysis buffer (Cell Signaling Technology) containing additional inhibitors of aspartic, cysteine and serine proteases and aminopeptidases (protease inhibitor cocktail set III, EMD Biosciences) and inhibitors of multiple phosphatases (phosphatase inhibitor cocktail sets II and III, Sigma-Aldrich). The levels of phosphorylated and total p38, JNK, ERK1/2 and total IκBα were determined by immunoblotting of ∼20 μg protein per sample using the following primary antibodies: phospho-p38 MAPK (12F8, #4631), p38 MAPK (#9212), phospho-JNK (#9251), JNK (#9252) and IκBα (#9242) all purchased from Cell Signaling Technology, and phospho-ERK1/2 (sc-7383) and ERK1/2 (sc-94) antibodies from Santa Cruz Biotechnology.

In test [8] the test system is NOD2. Briefly: MDP-stimulated cytokine release in primary human monocytes. The class given is cell-based. Particulars: MDP 0.1 μg/mL. As to the method: (§3) […] The concentration of IL-1β, IL-6 and TNFα in medium samples collected after 24-hour treatment was determined using the MS6000 human pro-inflammatory-4 II tissue culture kit (Meso Scale Discovery). The IL-8 concentration was determined by HTRF.

Test [9] relates to TLR2. Nature of the test: Pam2CSK4-stimulated IL-8 release in primary human monocytes. The class given is cell-based. The settings on record: Pam2CSK4 100 pg/mL; GSK717 0.5–16 μM, RIP2 inhibitor 0.05–1.6 μM.
For another test, the system named is NOD2 and TLR2. Nature of the test: IL-8 release in primary human monocytes co-stimulated with MDP and Pam2CSK4 (NOD2-TLR2 synergy). Particulars: MDP 0.1 μg/mL + Pam2CSK4 100 pg/mL; listed as GSK717. The class given is cell-based. As to the method: as §3

T1 sequence (O43353 whole entry): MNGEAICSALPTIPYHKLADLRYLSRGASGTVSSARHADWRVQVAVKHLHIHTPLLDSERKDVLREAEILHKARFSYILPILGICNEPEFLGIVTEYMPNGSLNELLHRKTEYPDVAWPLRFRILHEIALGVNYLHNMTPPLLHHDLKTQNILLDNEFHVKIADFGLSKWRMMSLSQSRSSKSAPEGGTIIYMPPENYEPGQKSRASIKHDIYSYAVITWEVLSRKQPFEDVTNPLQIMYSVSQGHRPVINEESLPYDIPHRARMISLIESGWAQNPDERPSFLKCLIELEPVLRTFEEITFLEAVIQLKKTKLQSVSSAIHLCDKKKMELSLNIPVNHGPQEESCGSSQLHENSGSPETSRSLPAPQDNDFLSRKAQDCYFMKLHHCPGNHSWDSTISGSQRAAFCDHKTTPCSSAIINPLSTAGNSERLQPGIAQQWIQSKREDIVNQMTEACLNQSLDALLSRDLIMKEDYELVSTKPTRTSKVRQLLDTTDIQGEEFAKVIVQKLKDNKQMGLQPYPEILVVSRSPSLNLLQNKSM

Take `CC(C)c1ccc(NC(=O)Cn2c(CCNC(=O)c3ccccc3)nc3ccccc32)cc1` [Compound 2, N-(2-(1-(2-((4-isopropylphenyl)amino)-2-oxoethyl)-1H-benzo[d]imidazol-2-yl)ethyl)benzamide]: the IC50 was 5 µM with NOD2 [1] (IL-8 end-point, 30 ng/mL MDP, read-out: IC50 293/hNOD2 MDP); 4 ± 3.9 µM in the test on NOD2 [1] (MDP-stimulated IL-8 production assay in 293/hNOD2 cells, Figures 4 and 5, read-out: NOD2 IC50); > 50 µM in the test on NOD1 [2]; > 50 µM in the test on NOD1 [3] (Homo sapiens, HCT-116, IL-8 end-point, 25 μg/mL Tri-DAP); 1.1 ± 0.7 µM with NOD2 [4] (Homo sapiens, HCT-116, IL-8 end-point, 1 μg/mL MDP); > 100 µM with TNFR1. Also, the IC50 (in the test on TLR2 [5]; in test [6]) was > 100 µM in each case. Besides, the “effect on IL-8 secretion induced by Tri-DAP in HCT116 cells” value in the test on NOD1 [3] (Tri-DAP 25 μg/mL, 1 hour pre-treatment) is recorded as “had no effect”. Further, the “effect on IL-8 secretion induced by MDP in HCT116 cells” value in the test with NOD2 [4] (MDP 1 μg/mL, 1 hour pre-treatment) is reported as “dose-dependently inhibited”. Besides, the “effect on MDP-induced p-p38, p-JNK and total IκBα” value with NOD2 [7] is “more modest inhibitory effects”.

Turning to `CN(CCc1nc2ccccc2n1CC(=O)Nc1ccc2c(c1)CCC2)C(=O)c1ccccc1` [Compound 29, N-(2-(1-(2-((2,3-dihydro-1H-inden-5-yl)amino)-2-oxoethyl)-1H-benzo[d]imidazol-2-yl)ethyl)-N-methylbenzamide], the “effect on MDP-stimulated IL-8 release in monocytes” value in the test on NOD2 [8] (GSK717 0.5–16 μM, RIP2 inhibitor 0.05–1.6 μM) is reported as “prevented”. Moreover, the “effect on MDP-stimulated cytokine secretion, single concentration” value in the test with NOD2 [8] (primary human monocytes, compound 5 μM, IL-1β, IL-6, IL-8, TNFα, 24 hours) was “abrogated the stimulatory effect of MDP”. Also, the “effect on Pam2CSK4-stimulated IL-8 release in monocytes” value with TLR2 [9] is listed as “but not Pam2CSK4-stimulated IL-8 release”. Moreover, the “effect on synergistic IL-8 response of co-stimulated monocytes” value in the test with NOD2 and TLR2 was “blocks synergy between NOD2 and TLR2; also recorded: abolished the clear synergistic IL-8 response”.
